Measured values taken from patent US6210964A, “Avian extracellular calcium-sensing receptor” (The Brigham and Women's Hospital, Inc., priority 1998, dated 2001).
One block for each compound: values may come before it.

Assays:
human CaR [1] = target: T1, human CaR (Homo sapiens, UniProt P41180); experiment: Cytosolic calcium (Cai) response of HEK 293 cells stably transfected with the human CaR; format: cell-based; design: expressed in transfected cells; host or cells: HEK 293; settings: for effect on the EC50 of activation by Cao compared with 40 mM NaCl: addition of 40 mM salt
T1 sequence (P41180 20-1078): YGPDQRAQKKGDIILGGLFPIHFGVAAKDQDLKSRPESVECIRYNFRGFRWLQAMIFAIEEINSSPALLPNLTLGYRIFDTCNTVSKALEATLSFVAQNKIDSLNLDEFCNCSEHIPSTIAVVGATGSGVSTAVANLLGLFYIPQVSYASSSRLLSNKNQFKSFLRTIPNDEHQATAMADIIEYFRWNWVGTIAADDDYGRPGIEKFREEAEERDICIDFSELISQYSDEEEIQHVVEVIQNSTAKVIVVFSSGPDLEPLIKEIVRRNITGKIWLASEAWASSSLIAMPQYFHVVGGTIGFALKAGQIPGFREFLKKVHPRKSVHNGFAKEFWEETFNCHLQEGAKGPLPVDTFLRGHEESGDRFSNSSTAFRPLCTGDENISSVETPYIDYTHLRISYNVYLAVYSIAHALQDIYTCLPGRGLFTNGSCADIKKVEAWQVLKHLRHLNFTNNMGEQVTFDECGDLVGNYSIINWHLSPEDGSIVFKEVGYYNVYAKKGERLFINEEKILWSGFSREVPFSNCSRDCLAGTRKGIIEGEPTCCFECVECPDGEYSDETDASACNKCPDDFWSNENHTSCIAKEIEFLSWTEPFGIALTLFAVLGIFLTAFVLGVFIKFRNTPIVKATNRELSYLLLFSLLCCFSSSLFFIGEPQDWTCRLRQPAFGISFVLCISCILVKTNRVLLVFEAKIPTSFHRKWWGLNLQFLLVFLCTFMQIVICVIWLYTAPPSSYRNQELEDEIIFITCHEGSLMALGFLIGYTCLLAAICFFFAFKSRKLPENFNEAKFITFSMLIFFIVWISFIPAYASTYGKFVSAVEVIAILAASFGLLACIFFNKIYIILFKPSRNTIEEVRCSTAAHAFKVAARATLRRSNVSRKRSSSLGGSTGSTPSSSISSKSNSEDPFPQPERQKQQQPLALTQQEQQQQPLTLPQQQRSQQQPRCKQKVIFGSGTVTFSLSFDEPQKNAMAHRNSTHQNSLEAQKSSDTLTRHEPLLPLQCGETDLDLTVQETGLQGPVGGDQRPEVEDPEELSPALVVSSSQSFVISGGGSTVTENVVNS
Procedure: Measurement of Cai using cell population system: Coverslips with near-confluent HEK cells were loaded with fura-2/AM and placed diagonally into thermostated cuvettes equipped with a magnetic stirrer. The bath solution was stirred at 37° C., and CaR agonists were added to the desired final concentration. Excitation monochrometers was centered at 340 nm and 380 nm with emission light collected at 90° using a long-pass emission filter. The 340/380 excitation ratio of emitted light was used to calculate Cai. Both in vivo and in vitro calibrations were used to estimate Cai.

human CaR [2] = target: T1, human CaR; settings: addition of NaCl
Procedure: Measurement of ^3 H-inositol phosphates: Cells transfected with DNA encoding human CaR were labeled with [^3 H]inositol (10 uCi/10^6 cells) overnight in medium 199 (with 10 ul/ml penicillin-streptomycin, 10 mM Hepes, pH 7.5, and 15% bovine serum), washed with solution (10 mM LiCl, 0.5 mM MgSO4, 0.5 mM CaCl2, and 2 mg/ml BSA in Eagle's MEM with Earle's salts), and then incubated with polyvalent cations for 30 minutes. Reactions were terminated with a final concentration of 10% TCA. After sedimentation of precipitated debris and removal of TCA by ether extraction, inositol phosphates in the aqueous phase were separated on Dowex anion exchange columns. The radioactive inositol monophosphate (InsP), bisphosphate (InsP2), trisphosphate (InsP3) and tetraphosphate (InsP4) were eluted stepwise with 0.2 M, 0.4 M, 0.8 M and 1.2 M formate containing 0.1 M formic acid, respectively, and quantitated using a liquid scintillation counter.

chicken CaR = target: T2, chicken CaR (Gallus gallus, UniProt A0A8V0ZLX2); experiment: Expression of chicken CaR in Xenopus laevis oocytes, agonist-dependent inward Cl- currents; format: cell-based
T2 construct: ORF 3177 nt, nt 87-3263), T7 cRNA injected into Xenopus laevis oocytes
T2 sequence (A0A8V0ZLX2 20-1059): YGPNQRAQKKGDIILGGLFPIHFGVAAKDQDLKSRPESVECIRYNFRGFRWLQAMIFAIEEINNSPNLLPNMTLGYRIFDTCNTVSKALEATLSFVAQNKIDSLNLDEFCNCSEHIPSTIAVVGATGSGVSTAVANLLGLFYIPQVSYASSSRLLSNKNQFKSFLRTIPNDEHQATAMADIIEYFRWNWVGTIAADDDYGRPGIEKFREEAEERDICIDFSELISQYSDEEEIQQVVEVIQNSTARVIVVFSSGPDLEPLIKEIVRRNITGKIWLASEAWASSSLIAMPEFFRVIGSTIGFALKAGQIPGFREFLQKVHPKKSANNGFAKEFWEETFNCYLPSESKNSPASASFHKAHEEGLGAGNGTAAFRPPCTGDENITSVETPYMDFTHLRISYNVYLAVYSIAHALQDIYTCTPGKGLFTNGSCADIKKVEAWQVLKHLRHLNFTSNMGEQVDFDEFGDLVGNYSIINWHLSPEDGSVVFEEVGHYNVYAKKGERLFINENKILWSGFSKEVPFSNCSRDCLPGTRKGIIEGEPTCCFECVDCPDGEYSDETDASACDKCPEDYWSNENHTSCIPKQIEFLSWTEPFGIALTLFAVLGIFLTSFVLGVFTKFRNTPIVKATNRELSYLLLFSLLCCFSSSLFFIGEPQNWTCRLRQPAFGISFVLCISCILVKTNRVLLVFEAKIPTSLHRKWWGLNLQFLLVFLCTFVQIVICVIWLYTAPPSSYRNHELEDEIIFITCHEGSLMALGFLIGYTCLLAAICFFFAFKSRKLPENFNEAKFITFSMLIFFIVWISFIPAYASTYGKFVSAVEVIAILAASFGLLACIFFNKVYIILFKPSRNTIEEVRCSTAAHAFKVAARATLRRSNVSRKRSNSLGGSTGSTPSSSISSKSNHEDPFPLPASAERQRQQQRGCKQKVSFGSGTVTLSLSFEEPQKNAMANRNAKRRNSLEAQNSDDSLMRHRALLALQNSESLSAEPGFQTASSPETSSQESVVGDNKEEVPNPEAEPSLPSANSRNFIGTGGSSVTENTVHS
From the text: Expression of the chicken CaR in Xenopus laevis oocytes. The assay is based on injection of synthetic RNA (cRNA) for the chicken CaR into Xenopus oocytes and measurement of agonist-dependent inward currents due to CaR-mediated stimulation of Ca^2+ -activated Cl^- channels (Brown, et al., Nature 366: 575-580 (1993)). In preparing, handling and injecting the oocytes, the techniques of Hediger et al. were followed (Proc. Nat'l Acad. Sci. USA 84:2634-2637 (1987)). cRNA was transcribed from the C1D one as previously described (Brown et al. Nature 336:575-580 (1993)). In vitro transcription of cRNA was done with T7 RNA polymerase in the presence of a cap analog (m^7 -GpppG, Pharmacia Biotech, Upsala, Sweden). Defolliculated oocytes were injected with 50 nl of a 0.25 μg/μl aqueous solution of CaR cRNA or with the same volume of H2 O as a negative control. The injected oocytes were then incubated in ND96 "standard" solution containing 92 mM Na, 5 mM K, 0.5 mM CaCl2 0.5 mM MgCl and 5 mM Hepes, pH 7.5, for 3-4 days before electrophysiological study. Cl^- currents were elicited by treatment of the oocytes with increasing concentrations of Ca^2+0, Mg^2+0 or Gd^3+0 and were measured using two electrode voltage clamp at a holding potential of […], as described in detail previously (Brown et al. Nature 336:575-580 (1993); Riccardi, et al. Proc. Nat'l Acad. Sci. USA 92:131-135 (1995)).

[3] = oocytes injected with chicken CaR cRNA, Cl- currents

SMILES: C[N+](C)(C)CCO.[Cl-] [choline chloride]
effect on the EC50 of activation by Cao compared with 40 mM NaCl (human CaR [1]): same effect

SMILES: [Cl-].[Na+] [NaCl, sodium chloride]
effect on Cai response to 2.5 mM Cao (human CaR [1]; NaCl elevated by 20 to 60 mM): attenuated
effect on threshold and EC50 of Cao activation (human CaR [1]; addition of NaCl in 20 mM increments): shift to the right
effect on Ca0-stimulated inositol phosphate accumulation (human CaR [2]): attenuated

SMILES: [Cl-].[K+] [potassium chloride]
effect on the EC50 of activation by Cao compared with 40 mM NaCl (human CaR [1]): same effect

The next lines start with the values.

effective concentration range (chicken CaR; [3]): millimolar range
SMILES: [Mg+2] [Mg^2+o]

threshold for cell activation (human CaR [1]; no alteration in NaCl): about 1.5 mM
EC50 (human CaR [1]; no alteration in NaCl, read-out: EC50 for activation of the CaR): ~3.5 mM
shift in the EC50 per 10 mM change in ionic strength (human CaR [1]; per 10 mM change in ionic strength): approximately 0.2 mM
effective concentration range (chicken CaR; [3]): millimolar range
SMILES: [Ca+2] [Ca^2+o]

magnitude of inward current responses relative to Ca2+-evoked responses (chicken CaR; FIG. 5): almost an order of magnitude greater
half-maximal activation (chicken CaR; [3]): micromolar range
SMILES: [Gd+3] [Gd^3+o]
